In the supplement of paper PMC10307832:

What was measured:
[1] = compound: CC(C)CCN1c2nc(Nc3cc(F)c(O)c(F)c3)ncc2N(C)C(=O)C1C [BI-D1870] + CC(=O)Nc1cccc(-n2c(=O)n(C3CC3)c(=O)c3c(Nc4ccc(I)cc4F)n(C)c(=O)c(C)c32)c1 [Trametinib] (partner 0.02 µM); test: relative viability (nuclei count vs DMSO), 5 days (fraction); higher = more cells survive
How it was run: (§1)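 Cells from lung cancer lines were seeded into 1536-well plates and, one day later, dosed by pin tool. Treatments were either a single drug or a fixed dose of an anchor drug with five library-drug doses (not always all listed) in √10 steps. After 5 days, nuclei were stained in a one-step fixation (final 0.05% Triton X-100, 1% formaldehyde, 1 ug/ml Hoechst) and counted on 4× images, and relative viability is the treated-to-vehicle nuclei ratio, as the median of duplicate plates.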

[2] = compound: O=c1ncccn1[C@@H]1O[C@H](CO)[C@@H](O)[C@H]1O [Zebularine] + Cc1nc(Nc2ncc(C(=O)Nc3c(C)cccc3Cl)s2)cc(N2CCN(CCO)CC2)n1 [Dasatinib] (partner 0.075 µM); test: as above
How it was run: as §1

Cell Line | relative viability ([1]; first compound 0.04 µM) | relative viability ([1]; first compound 0.1265 µM) | relative viability ([1]; first compound 0.4 µM) | relative viability ([1]; first compound 1.265 µM) | relative viability ([1]; first compound 4 µM) | relative viability ([2]; first compound 1 µM) | relative viability ([2]; first compound 3.162 µM) | relative viability ([2]; first compound 10 µM) | relative viability ([2]; first compound 31.62 µM) | relative viability ([2]; first compound 100 µM)
NCI-H2170 | 1 | 0.829 | 0.887 | 0.939 | 0.874 | 0.658 | 0.572 | 0.364 | 0.559 | 0.278
NCI-H2085 | 0.547 | 0.411 | 0.576 | 0.654 | 0.524 | 0.209 | 0.226 | 0.243 | 0.222 | 0.246
SW 1573 | 0.595 | 0.528 | 0.552 | 0.497 | 0.318 | 0.555 | 0.523 | – | 0.548 | 0.475
NCI-H727 | 0.41 | 0.406 | 0.406 | 0.438 | 0.429 | 0.383 | – | – | 0.349 | 0.356
NCI-H441 | 0.524 | 0.417 | 0.463 | 0.578 | 0.378 | 0.705 | 0.619 | 0.394 | 0.41 | 0.271
LOU-NH91 | 0.842 | 0.762 | 0.788 | 0.761 | 0.651 | 0.569 | 0.595 | 0.553 | 0.571 | 0.473
NCI-H3122 | 0.234 | 0.202 | 0.234 | 0.25 | 0.279 | 0.981 | 0.79 | – | 0.889 | 0.918
NCI-H460 | 0.133 | 0.117 | 0.126 | 0.105 | 0.0577 | 0.725 | 0.527 | 0.326 | 0.304 | 0.0827
NCI-H650 | 0.995 | 0.82 | 0.862 | 0.901 | 0.904 | 0.462 | 0.486 | 0.403 | 0.397 | 0.268
NCI-H661 | 0.607 | 0.499 | 0.598 | 0.589 | 0.472 | 0.833 | 0.918 | 0.868 | 1.05 | 0.819
NCI-H1793 | 0.486 | 0.332 | 0.366 | 0.631 | 0.429 | 0.479 | 0.373 | – | 0.25 | 0.176
NCI-H1734 | 0.752 | 0.549 | 0.658 | 0.706 | 0.632 | 0.546 | 0.486 | 0.333 | 0.297 | 0.281
LXF-289 | 0.755 | 0.608 | 0.71 | 0.738 | 0.612 | 0.233 | 0.187 | 0.184 | 0.175 | 0.154
H3255 | 0.655 | 0.506 | 0.568 | 0.661 | 0.599 | 0.402 | 0.365 | 0.324 | 0.409 | 0.368
201T | 0.694 | 0.683 | 0.703 | 0.705 | 0.715 | 0.635 | 0.586 | 0.508 | 0.6 | 0.548
NCI-H2126 | 0.557 | 0.598 | 0.564 | 0.546 | 0.539 | 0.813 | 0.538 | 0.612 | 0.569 | 0.488
